Test results reported in ChEMBL document CHEMBL1687763 (2010).
≈ marks a conversion by molar mass, not a printed value.

Assays:
[1] = test system: Staphylococcus aureus; assay: Antimicrobial activity against methicillin-resistant Staphylococcus aureus isolate 55 after 24 hrs by agar dilution method; conditions: isolate 55, 24 h
[2] = test system: Staphylococcus aureus; assay: Antimicrobial activity against methicillin-resistant Staphylococcus aureus isolate 56 after 24 hrs by agar dilution method; conditions: isolate 56, 24 h
[3] = test system: Staphylococcus aureus; assay: Antimicrobial activity against glycopeptide-susceptible Staphylococcus aureus NRS3 by tube macrodilution method
[4] = test system: Staphylococcus aureus; assay: Antimicrobial activity against methicillin-resistant Staphylococcus aureus isolate 55 after 24 hrs by macrodilution method; conditions: isolate 55, 24 h
[5] = test system: Staphylococcus aureus; assay: Antimicrobial activity against methicillin-resistant Staphylococcus aureus isolate 56 after 24 hrs by macrodilution method; conditions: isolate 56, 24 h
[6] = test system: Staphylococcus aureus; assay: Antimicrobial activity against methicillin-resistant Staphylococcus aureus isolate 55 after 48 hrs by agar dilution method; conditions: isolate 55, 48 h
[7] = test system: Staphylococcus aureus; assay: Antimicrobial activity against methicillin-resistant Staphylococcus aureus isolate 56 after 48 hrs by agar dilution method; conditions: isolate 56, 48 h
[8] = test system: Staphylococcus aureus; assay: Antimicrobial activity against methicillin-resistant Staphylococcus aureus isolate 55 after 48 hrs by macrodilution method; conditions: isolate 55, 48 h
[9] = test system: Staphylococcus aureus; assay: Antimicrobial activity against methicillin-resistant Staphylococcus aureus isolate 56 after 48 hrs by macrodilution method; conditions: isolate 56, 48 h
[10] = test system: Staphylococcus aureus; assay: Antimicrobial activity against methicillin-resistant Staphylococcus aureus isolate 55 grown on brain heart infusion media after 48 hrs by macrodilution method; conditions: isolate 55, 48 h
[11] = test system: Staphylococcus aureus; assay: Antimicrobial activity against methicillin-resistant Staphylococcus aureus isolate 56 grown on brain heart infusion media after 48 hrs by macrodilution method; conditions: isolate 56, 48 h
[12] = test system: Staphylococcus aureus; assay: Antimicrobial activity against methicillin-resistant Staphylococcus aureus isolate 55 grown on CAMHB media after 48 hrs by tube macrodilution method; conditions: isolate 55, 48 h
[13] = test system: Staphylococcus aureus; assay: Antimicrobial activity against methicillin-resistant Staphylococcus aureus isolate 56 grown on CAMHB media after 48 hrs by tube macrodilution method; conditions: isolate 56, 48 h
[14] = test system: Staphylococcus aureus; assay: Antimicrobial activity against heterogenous glycopeptide-intermediate resistant Staphylococcus aureus Mu3-D grown on brain heart infusion media after 48 hrs by tube macrodilution method
[15] = test system: Staphylococcus aureus; assay: Antimicrobial activity against methicillin-resistant Staphylococcus aureus isolate 1 by broth microdilution method
[16] = test system: Staphylococcus aureus; assay: Antimicrobial activity against methicillin-resistant Staphylococcus aureus isolate 6 by broth microdilution method
[17] = test system: Staphylococcus aureus; assay: Antimicrobial activity against methicillin-resistant Staphylococcus aureus isolate 8 by broth microdilution method
[18] = test system: Staphylococcus aureus; assay: Antimicrobial activity against methicillin-resistant Staphylococcus aureus isolate 12 by broth microdilution method

CN[C@H](CC(C)C)C(=O)N[C@H]1C(=O)N[C@@H](CC(N)=O)C(=O)N[C@H]2C(=O)N[C@H]3C(=O)N[C@H](C(=O)N[C@H](C(=O)O)c4cc(O)cc(O)c4-c4cc3ccc4O)[C@H](O)c3ccc(c(Cl)c3)Oc3cc2cc(c3O[C@@H]2O[C@H](CO)[C@@H](O)[C@H](O)[C@H]2O[C@H]2C[C@](C)(N)[C@H](O)[C@H](C)O2)Oc2ccc(cc2Cl)[C@H]1O [VANCOMYCIN]
MIC [1]: 8 µg/mL (≈ 5.52 µM)
MIC [2]: 8 µg/mL (≈ 5.52 µM)
MIC [3]: ≥ 8 µg/mL
MIC [4]: 8 µg/mL (≈ 5.52 µM)
MIC [5]: 8 µg/mL (≈ 5.52 µM)
MIC [6]: 8 µg/mL (≈ 5.52 µM)
MIC [7]: 8 µg/mL (≈ 5.52 µM)
MIC [8]: 8 µg/mL (≈ 5.52 µM)
MIC [9]: 8 µg/mL (≈ 5.52 µM)
MIC [10]: 8 µg/mL (≈ 5.52 µM)
MIC [11]: 8 µg/mL (≈ 5.52 µM)
MIC [12]: 8 µg/mL (≈ 5.52 µM)
MIC [13]: 8 µg/mL (≈ 5.52 µM)
MIC [14]: 4 µg/mL (≈ 2.76 µM)
MIC [15]: 0.25 µg/mL (≈ 0.173 µM)
MIC [16]: 0.25 µg/mL (≈ 0.173 µM)
MIC [17]: 0.25 µg/mL (≈ 0.173 µM)
MIC [18]: 0.25 µg/mL (≈ 0.173 µM)
